Values of other authors, collected in patent publication US20180125772A1, “Oral Care Compositions” (Colgate-Palmolive Company, priority 2016, published 2018).

Conditions: aqueous solution, pH of no net charge

NCCCC[C@H](N)C(=O)O [lysine]
isoelectric point: 9.7 pH
